Assay results published in patent US20150126467A1, “USE OF ALGINATE OLIGOMERS TO ENHANCE THE EFFECTS OF ANTIFUNGAL AGENTS” (AlgiIPharma AS, priority 2011, published 2015).

How the values were obtained:
Format in all cases: cell-based
[1] = tested on: C. tropicalis 75 (vaginal); experiment: Robotic MIC assay, Candida strains (Example 2); settings: 48 h, Mueller-Hinton broth
Method: (§1) A robotic MIC Assay was performed as follows. OligoG CF-5/20 were dissolved in medium (Mueller-Hinton broth or M19 broth depending on experiment) to 1.25 times of the desired assay concentrations (2, 6 and 10%). The antifungal agents under test were dissolved in medium without OligoG CF-5/20 and in medium with OligoG CF-5/20 at a concentration of 1.25 times the highest desired assay concentrations. For experiments where the effect of adding different concentrations of Na^+ was investigated, NaCl was dissolved in medium to the desired concentrations (10, 30 and 50 mM).
(§2) Two-fold serial dilutions of antifungal agents were made in medium with different concentrations of OligoG CF-5/20, and the solutions were placed in four parallel wells in Nunc 384-well micro plates (30 μl per well in Nunc 242757 microplates). A group of 8 wells with no addition of antifungal agents for each OligoG CF-5/20 concentration was included on each microplate as growth reference. To each well in the 384-well assay plates was added 7.5 μl of medium inoculated with a frozen stock culture of Candida albicans (strain CCUG 39343).
(§3) The micro plates were placed in plastic bags and incubated without shaking at 34° C. The optical density at 600 nm in the microwells was measured after approximately 13, 18, 24 and 34 hours of incubation, and the relative growth yield in each well was calculated based on the growth in the reference groups.
(§4) The robotic assay described in Example 1 was employed in this Example. Strains were grown in Mueller-Hinton broth (LAB114 from Lab M Limited) and MIC values (μg ml-1) were determined for each antifungal after incubation for 48 h in the presence of 0, 2, 6 and 10% OligoG CF-5/20 G-fragments. […] OligoG CF-5/20 G-fragments were provided by AlgiPharma AS, Norway.
(§5) Candida strains used were as follows: • C. albicans CCUG 39343 (strain from culture collection) • C. parapsillosis ATCC 22019T (strain from culture collection) • C. krusei 141/03 (candidosis) • C. krusei 249/03(2) (ulceration) • C. lusitaniae 994/01(2) (candidosis) • C. tropicalis 12 (vaginal) • C. tropicalis 75 (vaginal) • C. tropicalis 519468 (urinary) • C. tropicalis 544123 (urinary) • C. tropicalis 250/03 (candidosis) • C. tropicalis AG1 (oral) • C. tropicalis T2.2 (oral)

[2] = tested on: C. krusei 141/03 (candidosis); experiment: Robotic MIC assay, Candida strains (Example 2); settings: 48 h, Mueller-Hinton broth
Method: as §1, §2, §3, §4, §5

C. tropicalis AG1 (oral) = experiment: Robotic MIC assay, Candida strains (Example 2); settings: 48 h, Mueller-Hinton broth
Method: as §1, §2, §3, §4, §5

[3] = tested on: C. tropicalis 544123 (urinary); experiment: Robotic MIC assay, Candida strains (Example 2); settings: 48 h, Mueller-Hinton broth
Method: as §1, §2, §3, §4, §5

[4] = tested on: C. tropicalis T2.2 (oral); experiment: Robotic MIC assay, Candida strains (Example 2); settings: 48 h, Mueller-Hinton broth
Method: as §1, §2, §3, §4, §5

[5] = tested on: C. krusei 249/03(2) (ulceration); experiment: Robotic MIC assay, Candida strains (Example 2); settings: 48 h, Mueller-Hinton broth
Method: as §1, §2, §3, §4, §5

[6] = tested on: C. tropicalis 519468 (urinary); experiment: Robotic MIC assay, Candida strains (Example 2); settings: 48 h, Mueller-Hinton broth
Method: as §1, §2, §3, §4, §5

[7] = tested on: C. tropicalis 250/03 (candidosis); experiment: Robotic MIC assay, Candida strains (Example 2); settings: C. tropicalis 250/03 Candiosis, 48 h, Mueller-Hinton broth
Method: as §1, §2, §3, §4, §5

[8] = tested on: C. lusitaniae 994/01(2) (candidosis); experiment: Robotic MIC assay, Candida strains (Example 2); settings: 48 h, Mueller-Hinton broth
Method: as §1, §2, §3, §4, §5

C. albicans CCUG 39343 = experiment: Robotic MIC assay, Candida strains (Example 2); settings: 48 h, Mueller-Hinton broth
Method: as §1, §2, §3, §4, §5

[9] = tested on: C. tropicalis 12 (vaginal); experiment: Robotic MIC assay, Candida strains (Example 2); settings: 48 h, Mueller-Hinton broth
Method: as §1, §2, §3, §4, §5

[10] = tested on: various Aspergillus species; experiment: Robotic MIC assay, summary over species (Example 4); settings: Aspergillus species tested
Method: (§6) Aspergillus sp. was grown at 30° C. for 96 h on YM-agar. Spores and aerial mycelium was cut out from the agar, suspended in 1 ml YM-broth and dispersed with glass beads (1 mm) in a mini bead beater for 2 min. Glycerol was added to the suspension to 10% and frozen at −80° C.
(§7) Each batch of frozen stock culture was then characterized in separate growth experiments using Mueller-Hinton broth to determine the minimum amount of inoculum giving satisfactory growth after 48 h under the conditions relevant for the MIC assay. This inoculation procedure is used in order to reduce day to day variation in bioassays.
(§8) Robotic minimum inhibitory concentration (MIC) assay was performed as follows. OligoG CF-5/20 was dissolved in medium (Mueller-Hinton broth) to 1.25 times of the desired assay concentrations (2, 6 and 10%). […].
(§9) Two-fold serial dilutions of antifungal agents were made in medium with different concentrations of OligoG CF-5/20, and the solutions were placed in four parallel wells in Nunc 384-well micro plates (30 μl per well in Nunc 242757 microplates). A group of 8 wells with no addition of antifungal agents for each OligoG CF-5/20 concentration was included on each micro plate as growth reference. Each well in the 384-well assay plates was added 7.5 μl of the MH medium inoculated with frozen stock culture of the relevant strains.
(§10) The microplates were placed in plastic bags and incubated without shaking at 34° C. The optical density at 600 nm in the microwells was measured after approximately 24 and 48 hours of incubation. […]

[11] = tested on: Aspergillus flavus CCUG 28296; experiment: Robotic MIC assay, Aspergillus (Example 4); settings: A. flavus CCUG 23451, 48 hours, Mueller-Hinton broth
Method: as §6, §7, §8, §9, §10

With `C[C@@H]1[C@H](O)[C@@H](C)/C=C/C=C/CC/C=C/C=C/C=C/C=C/C(O[C@H]2O[C@H](C)[C@@H](O)[C@H](N)[C@@H]2O)CC2O[C@](O)(CC(O)C(O)CCC(O)CC(O)CC(O)CC(=O)O[C@H]1C)CC(O)C2C(=O)O` (stereo partly shown) [Nystatin, nystatin] the “Minimum Inhibitory Concentration (MIC)” value ([1]; 0% OligoG) was 8 µg/mL, the “Minimum Inhibitory Concentration (MIC)” value ([1]; 2% OligoG) was 8 µg/mL and the “Minimum Inhibitory Concentration (MIC)” value ([1]; 6% OligoG) was 8 µg/mL. For the same compound, the “Minimum Inhibitory Concentration (MIC)” value ([1]; 10% OligoG) was 2 µg/mL, the “Minimum Inhibitory Concentration (MIC)” value ([2]; 0% OligoG) was 8 µg/mL and the “Minimum Inhibitory Concentration (MIC)” value ([2]; 2% OligoG) was 4 µg/mL. For the same compound, the “Minimum Inhibitory Concentration (MIC)” value ([2]; 6% OligoG) was 2 µg/mL, the “Minimum Inhibitory Concentration (MIC)” value ([2]; 10% OligoG) was 2 µg/mL and the “Minimum Inhibitory Concentration (MIC)” value (C. tropicalis AG1 (oral); 0% OligoG) was 8 µg/mL. The “Minimum Inhibitory Concentration (MIC)” value (C. tropicalis AG1 (oral); 2% OligoG) was 8 µg/mL, the “Minimum Inhibitory Concentration (MIC)” value (C. tropicalis AG1 (oral); 6% OligoG) was 4 µg/mL and the “Minimum Inhibitory Concentration (MIC)” value (C. tropicalis AG1 (oral); 10% OligoG) was 2 µg/mL. The “Minimum Inhibitory Concentration (MIC)” value ([3]; 0% OligoG) was 8 µg/mL, the “Minimum Inhibitory Concentration (MIC)” value ([3]; 2% OligoG) was 8 µg/mL and the “Minimum Inhibitory Concentration (MIC)” value ([3]; 6% OligoG) was 2 µg/mL. The “Minimum Inhibitory Concentration (MIC)” value ([3]; 10% OligoG) was 2 µg/mL, the “Minimum Inhibitory Concentration (MIC)” value ([4]; 0% OligoG) was 8 µg/mL and the “Minimum Inhibitory Concentration (MIC)” value ([4]; 2% OligoG) was 8 µg/mL. The “Minimum Inhibitory Concentration (MIC)” value ([4]; 6% OligoG) was 4 µg/mL, the “Minimum Inhibitory Concentration (MIC)” value ([4]; 10% OligoG) was 2 µg/mL and the “Minimum Inhibitory Concentration (MIC)” value ([5]; 0% OligoG) was 8 µg/mL. For the same compound, the “Minimum Inhibitory Concentration (MIC)” value ([5]; 2% OligoG) was 8 µg/mL, the “Minimum Inhibitory Concentration (MIC)” value ([5]; 6% OligoG) was 8 µg/mL and the “Minimum Inhibitory Concentration (MIC)” value ([5]; 10% OligoG) was 4 µg/mL. For the same compound, the “Minimum Inhibitory Concentration (MIC)” value ([6]; 0% OligoG) was 16 µg/mL, the “Minimum Inhibitory Concentration (MIC)” value ([6]; 2% OligoG) was 8 µg/mL and the “Minimum Inhibitory Concentration (MIC)” value ([6]; 6% OligoG) was 4 µg/mL. For the same compound, the “Minimum Inhibitory Concentration (MIC)” value ([6]; 10% OligoG) was 2 µg/mL, the “Minimum Inhibitory Concentration (MIC)” value ([7]; 0% OligoG) was 8 µg/mL and the “Minimum Inhibitory Concentration (MIC)” value ([7]; 2% OligoG) was 4 µg/mL. The “Minimum Inhibitory Concentration (MIC)” value ([7]; 6% OligoG) was 2 µg/mL, the “Minimum Inhibitory Concentration (MIC)” value ([7]; 10% OligoG) was 1 µg/mL and the “Minimum Inhibitory Concentration (MIC)” value ([8]; 0% OligoG) was 8 µg/mL. For the same compound, the “Minimum Inhibitory Concentration (MIC)” value ([8]; 2% OligoG) was 8 µg/mL, the “Minimum Inhibitory Concentration (MIC)” value ([8]; 6% OligoG) was 2 µg/mL and the “Minimum Inhibitory Concentration (MIC)” value ([8]; 10% OligoG) was 1 µg/mL. The “Minimum Inhibitory Concentration (MIC)” value (C. albicans CCUG 39343; 0% OligoG) was 8 µg/mL, the “Minimum Inhibitory Concentration (MIC)” value (C. albicans CCUG 39343; 2% OligoG) was 8 µg/mL and the “Minimum Inhibitory Concentration (MIC)” value (C. albicans CCUG 39343; 6% OligoG) was 4 µg/mL. For the same compound, the “Minimum Inhibitory Concentration (MIC)” value (C. albicans CCUG 39343; 10% OligoG) was 2 µg/mL, the “Minimum Inhibitory Concentration (MIC)” value ([9]; 0% OligoG) was 8 µg/mL and the “Minimum Inhibitory Concentration (MIC)” value ([9]; 2% OligoG) was 8 µg/mL. For the same compound, the “Minimum Inhibitory Concentration (MIC)” value ([9]; 6% OligoG) was 4 µg/mL, the “Minimum Inhibitory Concentration (MIC)” value ([9]; 10% OligoG) was 4 µg/mL and the “effect of addition of OligoG CF-5/20 on MIC values” [10] was “reduction in MIC values”. The “Minimum Inhibitory Concentration (MIC)” value ([11]; 0% OligoG) was 8 µg/mL, the “Minimum Inhibitory Concentration (MIC)” value ([11]; 2% OligoG) was 8 µg/mL and the “Minimum Inhibitory Concentration (MIC)” value ([11]; 6% OligoG) was 4 µg/mL. For the same compound, the “Minimum Inhibitory Concentration (MIC)” value ([11]; 10% OligoG) was 2 µg/mL.
